Assay: xn = mol fraction of the nth substance listed
Conditions: 101 kPa, Liquid; for speed of sound: Sing-around technique in a fixed-path interferometer

COC(C)(C)C [2-methoxy-2-methylpropane] + Cc1ccc(C)cc1
Conditions | mass density, 288.15 K [kg/m3] | mass density, 290.65 K [kg/m3] | mass density, 293.15 K [kg/m3] | mass density, 295.65 K [kg/m3] | speed of sound, 288.15 K [m/s] | speed of sound, 290.65 K [m/s] | speed of sound, 293.15 K [m/s] | speed of sound, 295.65 K [m/s]
x1 = 0.051 | 859.904 | 857.719 | 855.534 | 853.348 | 1337.8 | 1327.2 | 1316.8 | 1306.5
x1 = 0.111 | 853.391 | 851.187 | 848.983 | 846.775 | 1325 | 1314.2 | 1303.7 | 1293.1
x1 = 0.199 | 843.55 | 841.317 | 839.08 | 836.841 | 1302.9 | 1292.2 | 1281.6 | 1271
x1 = 0.297 | 832.629 | 830.36 | 828.088 | 825.813 | 1278.6 | 1267.7 | 1257 | 1246.2
x1 = 0.394 | 821.398 | 819.092 | 816.783 | 814.47 | 1253 | 1242 | 1231.1 | 1220.2
x1 = 0.5 | 808.782 | 806.435 | 804.082 | 801.723 | 1223.9 | 1212.8 | 1201.9 | 1191
x1 = 0.591 | 797.744 | 795.358 | 792.963 | – | 1199.5 | 1188.4 | 1177.3 | 1166.2
x1 = 0.7 | 784.294 | 781.856 | 779.412 | – | 1169.8 | 1158.4 | 1147.2 | 1135.9
x1 = 0.799 | 771.481 | 768.993 | 766.5 | – | 1140.7 | 1129.2 | 1117.9 | 1106.6
x1 = 0.898 | 758.534 | 755.997 | 753.452 | – | 1112.1 | 1100.5 | 1089 | 1077.5
x1 = 0.949 | 751.828 | 749.262 | 746.689 | – | 1096.4 | 1084.7 | 1073.2 | 1061.7
x1 = 1 | 744.861 | 742.259 | 739.654 | – | 1083.4 | 1071.6 | 1060 | 1048.5
